# According to patent US20080234131A1, “Herbicidal Mixtures of Cinmethylin” (priority 2005, published 2008):
# System: LOLMG
# Assay: Pre-emergence herbicidal trial, tank-mix incorporated into the soil, damage rated 0-100% against untreated control plots
# Type: in vivo, lolium multiflorum
# Procedure: The mixtures according to the invention are applied pre-emergence as tank-mix which is incorporated into the soil. The herbicidal compounds of component A) and B) are applied in the formulation in which they are present as commercially available product. […] For comparison the synergistic effect is estimated as follows: The value E at which only an additive effect of the individual active ingredients is to be expected is calculated by the method of S. R. […] This is done using the formula […] where • X=Percentage of the herbicidal action of component A) at an application rate of a; • Y=Percentage of the herbicidal action of component B) at an application rate of b; • E=expected herbicidal action of component A)+B) at rates of application a+b (in %). If the value observed exceeds the value E calculated in accordance with Colby's formula, then synergism is present.
compound,measurement,setting,value
"Cc1ccccc1CO[C@@H]1C[C@@]2(C(C)C)CC[C@]1(C)O2 [Cinmethylin, exo(+)-1-methyl-4-(1-methylethyl)-2-[(2-methylphenyl)methoxy]-7-oxabicyclo[2.2.1]heptane]",% control of LOLMG,Cinmethylin 200 g/ha solo,58%
same,% control of LOLMG,Cinmethylin 400 g/ha solo,67%
CCC(CC)Nc1c([N+](=O)[O-])cc(C)c(C)c1[N+](=O)[O-] [Pendimethalin],% control of LOLMG,Pendimethalin 600 g/ha solo,56%
CCCN(CCC)c1c([N+](=O)[O-])cc(C(F)(F)F)cc1[N+](=O)[O-] [Trifluralin],% control of LOLMG,Trifluralin 500 g/ha solo,59%
